# Assay results from patent US9474790B2, “Stable, protracted GLP-1/glucagon receptor co-agonists for medical use” (Novo Nordisk A/S, priority 2013, dated 2016).
# pEC50: −log10 of the molar value. Numbered stars: 1 amine (or outer) side, 2 acyl side, 3 side chain; on linkers, the order of the positions; unused ones are H or OH. Square brackets hold non-standard residues; d marks the D form. Side chains are listed from the residue outwards. Peptide text beside a SMILES is read from it. * marks the point of attachment. C18 diacid = O=C(O)CCCCCCCCCCCCCCCCC(=O)*; γGlu = O=C(O)[C@H](CCC(=O)[*:2])N[*:1]; Ac4c = NC1(C(=O)O)CCC1; Aib = CC(C)(N)C(=O)O
# How the values were obtained:
# [1] = target: T1, human GLP-1 receptor (Homo sapiens, UniProt P43220); experiment: GLP-1 receptor potency, CRE luciferase reporter gene assay in BHK cells; format: cell-based; conditions: BHK cells expressing human GLP-1 receptor, read-out: EC50 GLP-1R
# T1 construct: expressed in transfected cells; host or cells: BHK cells (parent BHKTS13), clone FCW467-12A/KZ10-1, with CRE luciferase
# T1 sequence (P43220 24-463): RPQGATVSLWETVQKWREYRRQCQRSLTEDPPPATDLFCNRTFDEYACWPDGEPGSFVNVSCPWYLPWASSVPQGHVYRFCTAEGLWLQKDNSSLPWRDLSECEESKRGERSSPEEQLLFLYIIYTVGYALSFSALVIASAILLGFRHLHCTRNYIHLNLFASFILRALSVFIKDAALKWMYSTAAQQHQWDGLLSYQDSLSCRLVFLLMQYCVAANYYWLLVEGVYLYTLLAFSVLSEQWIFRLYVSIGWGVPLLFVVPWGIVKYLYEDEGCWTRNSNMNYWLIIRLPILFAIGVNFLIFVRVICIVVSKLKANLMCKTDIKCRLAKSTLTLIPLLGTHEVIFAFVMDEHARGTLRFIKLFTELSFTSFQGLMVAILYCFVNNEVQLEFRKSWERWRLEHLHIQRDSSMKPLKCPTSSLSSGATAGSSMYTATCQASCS
# Procedure, shortened: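 Potency as cAMP-driven firefly luciferase signal after 3 h, 37° C exposure to 10-fold dilutions (final 1×10EE-13–1×10EE-6 M). Stable hGLP-1R/CRE-luc BHK clone, 5×10EE3 cells/well, medium containing 2% ovalbumin and 0.2% Pluronic F-68; EC50 (pM) from variable-slope non-linear regression.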
# [2] = Thioflavin T (ThT) fibrillation assay for physical stability; format: physicochemical; conditions: 250 μM in 10 mM HEPES buffer, pH 7.5, 37° C., shaking 960 rpm
# Procedure, shortened: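 Fibrillation was followed by ThT (1 μM) fluorescence every 20 min, 444/485 nm, for 250 μM peptide in 10 mM HEPES pH 7.5 shaken at 960 rpm, 37° C. Lag time (t0−2τ) and apparent rate constant (1/τ) come from a sigmoidal fit. Recovery is % of initial concentration remaining soluble after centrifugation and filtration (RP-HPLC).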
pEC50 [1],THT assay Lag time (Ex. 76) [2],Structure (SMILES)
11.15,45 h,"CC(C)C[C@H](NC(=O)[C@H](Cc1ccc(O)cc1)NC(=O)[C@H](CCCCN)NC(=O)[C@H](CO)NC(=O)[C@H](CC(C)C)NC(=O)[C@H](CC(=O)O)NC(=O)[C@H](CO)NC(=O)[C@@H](NC(=O)[C@H](Cc1ccccc1)NC(=O)[C@@H](NC(=O)CNC(=O)[C@H](CCC(N)=O)NC(=O)C1(NC(=O)[C@@H](N)Cc2c[nH]cn2)CCC1)[C@@H](C)O)[C@@H](C)O)C(=O)N[C@@H](CCC(=O)O)C(=O)N[C@@H](CO)C(=O)N[C@@H](CCCCN)C(=O)N[C@@H](CCCNC(=N)N)C(=O)N[C@@H](C)C(=O)N[C@@H](CCCNC(=N)N)C(=O)N[C@@H](CCC(=O)O)C(=O)N[C@@H](Cc1ccccc1)C(=O)N[C@H](C(=O)N[C@@H](CCC(N)=O)C(=O)N[C@@H](Cc1c[nH]c2ccccc12)C(=O)N[C@@H](CC(C)C)C(=O)N[C@@H](CC(C)C)C(=O)N[C@@H](CCCCNC(=O)CC[C@H](NC(=O)CC[C@H](NC(=O)[C@H](CO)NC(=O)[C@H](CCC(=O)O)NC(=O)[C@H](CO)NC(=O)CC[C@H](NC(=O)CC[C@H](NC(=O)CCCCCCCCCCCCCCCCC(=O)O)C(=O)O)C(=O)O)C(=O)O)C(=O)O)C(=O)N[C@H](C(N)=O)[C@@H](C)O)C(C)C [Example 68, N^ε28-[(4S)-4-carboxy-4-[[(4S)-4-carboxy-4-[[(2S)-2-[[(2S)-4-carboxy-2-[[(2S)-2-[[(4S)-4-carboxy-4-[[(4S)-4-carboxy-4-(17-carboxyheptadecanoylamino)butanoyl]amino]butanoyl]amino]-3-hydroxypropanoyl]amino]butanoyl]amino]-3-hydroxypropanoyl]amino]butanoyl]amino]butanoyl]-[Acb2,Leu10,Glu15,Lys17,Arg20,Glu21,Leu27,Lys28]-Glucagon amide] (H-H[Ac4c]QGTFTSDLSKYLESKRAREFVQWLLK([γGlu-γGlu-Ser-Glu-Ser-γGlu-γGlu-C18 diacid])T-NH2; N-terminus assumed)"
11.15,45 h,"CC(C)C[C@H](NC(=O)[C@H](Cc1ccc(O)cc1)NC(=O)[C@H](CCCCN)NC(=O)[C@H](CO)NC(=O)[C@H](CC(C)C)NC(=O)[C@H](CC(=O)O)NC(=O)[C@H](CO)NC(=O)[C@@H](NC(=O)[C@H](Cc1ccccc1)NC(=O)[C@@H](NC(=O)CNC(=O)[C@H](CCC(N)=O)NC(=O)C(C)(C)NC(=O)[C@@H](N)Cc1c[nH]cn1)[C@@H](C)O)[C@@H](C)O)C(=O)N[C@@H](CCC(=O)O)C(=O)N[C@@H](CO)C(=O)N[C@@H](CCCCN)C(=O)N[C@@H](CCCNC(=N)N)C(=O)N[C@@H](C)C(=O)N[C@@H](CCCNC(=N)N)C(=O)N[C@@H](CO)C(=O)N[C@@H](Cc1ccccc1)C(=O)N[C@H](C(=O)N[C@@H](CCC(N)=O)C(=O)N[C@@H](Cc1c[nH]c2ccccc12)C(=O)N[C@@H](CC(C)C)C(=O)N[C@@H](CC(C)C)C(=O)N[C@@H](CCCCNC(=O)CC[C@H](NC(=O)CC[C@H](NC(=O)[C@H](CO)NC(=O)[C@H](CCC(=O)O)NC(=O)[C@H](CO)NC(=O)CC[C@H](NC(=O)CC[C@H](NC(=O)CCCCCCCCCCCCCCCCC(=O)O)C(=O)O)C(=O)O)C(=O)O)C(=O)O)C(=O)N[C@H](C(N)=O)[C@@H](C)O)C(C)C [Example 69, N^ε28-[(4S)-4-carboxy-4-[[(4S)-4-carboxy-4-[[(2S)-2-[[(2S)-4-carboxy-2-[[(2S)-2-[[(4S)-4-carboxy-4-[[(4S)-4-carboxy-4-(17-carboxyheptadecanoylamino)butanoyl]amino]butanoyl]amino]-3-hydroxypropanoyl]amino]butanoyl]amino]-3-hydroxypropanoyl]amino]butanoyl]amino]butanoyl]-[Aib2,Leu10,Glu15,Lys17,Arg20,Ser21,Leu27,Lys28]-Glucagon amide] (H-H[Aib]QGTFTSDLSKYLESKRARSFVQWLLK([γGlu-γGlu-Ser-Glu-Ser-γGlu-γGlu-C18 diacid])T-NH2; N-terminus assumed)"
